Columns and labels:
IB3-1 cells = test: Cell proliferation assay on IB3-1 cells; format: cell-based; conditions: Homo sapiens, cell number/ml after 48 h of treatment
Description: Monolayers of 60% confluent IB3-1 cells were seeded in 24- or 12-well plates in LHC-8 medium in the presence of 5% FBS. After 24 h, TMA derivatives were added at serial dilutions and incubated for further 2-3 days. The effects of compounds (TMA derivatives) on the cell proliferation were analyzed as elsewhere described. A first analysis was performed with serial dilutions to obtain 50 μM, 200 μM, and 800 μM solutions. In order to determine IC50 values, the following concentrations were used 12.5, 25, 50, 100, 200, and 800 μM. In order to prepare the cells for counting, they were washed with PBS 1X and detached with trypsin/EDTA. Cells were suspended in physiological solution and counted with a Z2 Coulter Counter (Coulter Electronics, Hialeah, FL, USA). The cell number/ml was determined as IC50 after 2 days of culture, when untreated cells are in log phase of cell growth.
In order to obtain preliminary information on the biological properties of TMA derivatives, their effects on cell growth were examined on IB3-1 cell line, excellent biological model to study new potential anti-inflammatory molecules. The use of this cell line to study the expression of proinflammatory molecules under a variety of stimuli is well established. Monolayers of 60% confluent IB3-1 cells were seeded in 12-well plate in LHC-8 medium with 5% FBS. After 24 h, compounds were added at different concentrations and the cell number/ml was determined after further 48 h of culture.

[1] = test system: other cytokines, chemokines, and growth factors; test: Bioplex analysis of other secreted proteins in TNF-α-induced IB3-1 cells; format: cell-based, human; conditions: 1 μM, TNF-α-stimulated IB3-1 cells, all secreted proteins analyzed except IP-10
Description: (§1) The Bioplex cytokine assay is designed for the multiplexed quantitative measurement of multiple cytokines in a single well using as little as 50 μl of sample. In our experiments, the premixed multiplex beads (27-plex) of the Bioplex human cytokines were used. 50 μl of cytokine standards or samples (supernatants recovered from treated cells and diluted to 2 μg/μl) were incubated with 50 μl of anticytokine conjugated beads in 96-well filter plates for 30 min at room temperature with shaking. Plates were washed by vacuum filtration three times with 100 μl of Bioplex wash buffer, 25 μl of diluted detection antibody were added, and plates were incubated for 30 min at room temperature with shaking. After three filter washes, 50 μl of streptavidin-phycoerythrin were added, and the plates were incubated for 10 min at room temperature with shaking. Finally, plates were washed by vacuum filtration three times, beads were suspended in Bioplex assay buffer, and samples were analyzed on a Bio-Rad 96-well plate reader using the Bioplex Suspension Array System and Bioplex Manager software (Bio-Rad Laboratories Inc., Hercules, CA).
(§2) In order to verify the effects on the secretion of IL-8 by IB3-1 cells, Luminex technology was employed to detect and quantify proteins secreted into the medium. […]

NF-κB p50 = target: T1, NF-κB p50 (Homo sapiens, UniProt P19838); test: EMSA, inhibition of NF-κB/DNA interactions; format: binding; conditions: NF-κB p50 and 32P-labeled NF-κB oligonucleotide, MIC = minimal inhibitory concentration, 12.5 μM was the lowest concentration used
T1 construct: This assay was performed using purified NF-κB p50; purchased Promega
T1 sequence (P19838 1-433 limits assumed): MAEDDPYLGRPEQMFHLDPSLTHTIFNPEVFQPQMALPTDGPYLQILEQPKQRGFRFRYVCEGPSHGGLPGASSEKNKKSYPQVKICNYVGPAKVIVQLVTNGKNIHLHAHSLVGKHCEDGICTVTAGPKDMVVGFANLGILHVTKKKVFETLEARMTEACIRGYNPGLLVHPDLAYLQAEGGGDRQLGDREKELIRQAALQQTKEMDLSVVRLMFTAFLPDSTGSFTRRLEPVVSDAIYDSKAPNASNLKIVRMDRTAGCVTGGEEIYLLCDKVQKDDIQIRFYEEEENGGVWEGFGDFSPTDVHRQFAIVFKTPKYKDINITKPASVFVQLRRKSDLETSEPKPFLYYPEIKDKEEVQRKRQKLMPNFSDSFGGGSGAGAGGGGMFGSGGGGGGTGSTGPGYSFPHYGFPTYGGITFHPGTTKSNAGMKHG
Description: Electrophoretic mobility shift assays were performed using double-stranded ^32P-labeled oligonucleotides as target DNA. Binding reactions were set up as previously described in binding buffer (10% glycerol, 0.05% NP-40, 10 mM Tris-HCl pH 7.5, 50 mM NaCl, 0.5 mM DTT, and 10 mM MgCl2), in the presence of 0.1 μl/20 μl of NF-κB p50 (50 gsu) (Promega, Madison, WI, USA) and 0.25 ng of labeled oligonucleotide, in a total volume of 20 μl. After 30 min binding at room temperature, samples were electrophoresed at constant voltage (200 V for 30 min) through a low ionic strength (0.25 TBE buffer) (1 TBE/40.089 M Tris-borate, 0.002 M EDTA) on 6% polyacrylamide gels until the tracking dye (bromophenol blue) reached the bottom of a 16 cm slab. Gels were dried and exposed for autoradiography with intensifying screens at […]. In these experiments, DNA/protein complexes migrate through the gel with slower efficiency. In studies on the inhibitors of protein/DNA interactions, addition of the reagents was as follows: (i) nuclear factors, (ii) active principles, (iii) binding buffer, and (iv) labeled oligonucleotides mimicking the binding sites for TF to be modulated. The nucleotide sequence of double-stranded target DNA utilized in these experiments was 5′-CGC TGG GGA CTT TCC ACG G-3′ (sense strand, NF-κB). The synthetic oligonucleotides utilized in this study were purchased from Sigma Genosys (Sigma Genosys, Cambs, UK). To calculate the effective concentrations, three different autoradiograms obtained from different time exposures were scanned and compared to control EMSA performed without addition of angelicin analogues (two independent experiments were performed).
The effects of TMA derivatives on NF-κB- (nuclear factor-kappaB-) mediated induction of proinflammatory genes was verified first in vitro by electrophoretic mobility shift assay (EMSA) with the aim to verify and quantify the possible inhibition of NF-κB/DNA interactions. This assay was performed using purified NF-κB p50 and ^32P-labeled target NF-κB double-stranded oligonucleotide mimicking the NF-κB consensus sequence present within the IL-8 gene promoter.

IP-10 = test: Bioplex analysis of IP-10 secretion in TNF-α-induced IB3-1 cells; format: cell-based, human; conditions: 1 μM, TNF-α-stimulated IB3-1 cells, three independent experiments
Description: as §1, §2

Cc1oc2c(C)cc3c(C)cc(=O)oc3c2c1C [Compound 1]
IC50 (IB3-1 cells): > 800 µM | Variation of other secreted proteins [1]: less than 10% | Inhibition of NF-κB/DNA complex (MIC) (NF-κB p50): <12.5 (^∗) μM | Increase of TNF-α-inducible IP-10 (IP-10): more than twofold

Reference: paper PMC5635289, “Differential Effects of Angelicin Analogues on NF-κB Activity and IL-8 Gene Expression in Cystic Fibrosis IB3-1 Cells” (Mediators of Inflammation, 2017)
